The results in this text go back to PMC5056396, “Hexokinase I N-terminal based peptide prevents the VDAC1-SOD1 G93A interaction and re-establishes ALS cell viability” (Scientific Reports, 2016).

For assay [1], the system named is recombinant human VDAC1. Nature of the assay: Microscale Thermophoresis (MST) analysis of VDAC1-SOD1 interaction. It is filed as binding. The conditions noted are these: 100 nM labeled VDAC1, SOD1 1.22 nM to 20 μM. The protocol:
(§1) Intact isolated mitochondria from the motor neuron-like NSC34 cells were incubated with SOD1 WT or G93A, and mitochondrial membranes were precipitated by centrifugation. […] The affinity of SOD1 proteins for VDAC1 was then studied by using an in vitro binding assay. Purified and refolded VDAC1 was immobilized on Ni-NTA magnetic beads and incubated with SOD1 proteins. Then, VDAC1-binding complexes were isolated by the application of a magnetic field. […] The VDAC1-SOD1 interaction was quantitatively assayed by Microscale Thermophoresis (MST) analysis. MST measures any variation in the thermal migration of a fluorescently labeled binding partner; changes of fluorescence in a heated spot of the protein solution is a function of increasing interacting protein concentration, and can be exploited to calculate the binding affinity coefficient (Kd). The fluorescent-labeled VDAC1 was incubated with increasing concentrations of SOD1 proteins and the changes in fluorescence monitored. […] Depletion curve was used to calculate the Kd, which was estimated 4,81 μM.
Microscale Thermophoresis (MST) analysis was performed using the NanoTemper Monolith NT.115 apparatus (NanoTemper Technologies, Munich, Germany) as described. VDAC1 was fluorescently-labeled using the NanoTemper protein-labeling kit Green/Blue. […]
(In general: Microscale thermophoresis detects binding through changes in fluorescence in a small temperature gradient.)

In assay [2] the test system is human VDAC1 reconstituted into PLB. In words: VDAC1 channel conductance in planar lipid bilayer (PLB). The conditions noted are these: for effect on single channel VDAC1 conductance: 1 M KCl, +25 mV, 0.2 μM SOD1 proteins or 15 μM peptide; for effect on voltage-dependence of VDAC1, triangular voltage ramps: symmetric 1 M KCl, ramps 0 to ±50 mV. It counts as biochemical. An excerpt:
Purified VDAC1 was reconstituted into a planar phospholipid bilayer (PLB) and its channel conductance was monitored before and after addition of SOD1 proteins, on cis or trans side of the membrane. […] Moreover, the effect of SOD1 proteins on the voltage-dependence of VDAC1 was monitored by triangular voltage ramps from 0 to ±50 mV. […] The current linearly follows the voltage applied up to about ±25 mV, where VDAC1 decreases its channel conductance through step-like transitions, remaining in low-conducting states.
Under standard experimental condition (1 M KCl and an applied potential of +25 mV) the VDAC1 channel was mainly in low-conducting closed states. […] The effect of NHK1 on the channel conductance is even more evident by plotting the amplitude values obtained in the current traces as a function of the number of events. While for VDAC1 alone the amplitude values appear as a main peak corresponding to the closed states (Fig. 4B), the presence of NHK1 caused a different distribution of events: an additional, different peak corresponding to the open state was visible, together with the closed states peak (Fig. 4C). […] The effect of NHK1 on the voltage-dependence of VDAC1 was monitored by triangular voltage ramps. […] In this experiment, indeed, VDAC1 completely loose, very precociously (already at ±15 mV applied), its ability to linearly respond to the applied voltage: a continuous switch from open to closed states was observed, especially at positive potentials. […] Upon NHK1 incubation, VDAC1 current transitions at positive voltages are very noisy and pass through different sub-conductance states (Fig. 4F).
Purified VDAC1 was reconstituted into a Planar Lipid Bilayer (PLB) apparatus (Warner Instruments, Hamden, CT, USA), previously described. Bilayers were prepared using asolectin (Sigma) dissolved in decane (Sigma) containing 1% chloroform (Sigma) across a 200 μm hole in a derlin cuvette (Warner Instruments). Experiments were performed in 1 M KCl, 10 mM Hepes, pH 7.0[40][46]. Control experiments using empty membrane and/or detergents were performed to avoid activity in any of the above solutions. Data were acquired using a Bilayer Clamp amplifier (Warner Instruments) at 100 μs/point, filtered at 200 Hz and analyzed offline using Clampfit 10.4 program set (Axon Instruments, Union City, CA, USA). Single channel analysis of VDAC1 was performed in presence or not of 0.2 μM of SOD1 WT or G93A, 15 μM NHK1 or ScNHK1 peptide.

Assay [3] concerns intact mitochondria purified from NSC34 cells. Nature of the assay: Mitochondrial binding assay of SOD1 proteins (western blot). More on the design: species or system mouse. The conditions noted are these: 2 μg SOD1, 1 h RT, n = 3. The protocol:
Intact isolated mitochondria from the motor neuron-like NSC34 cells were incubated with SOD1 WT or G93A, and mitochondrial membranes were precipitated by centrifugation. […] The affinity of SOD1 proteins for VDAC1 was then studied by using an in vitro binding assay. Purified and refolded VDAC1 was immobilized on Ni-NTA magnetic beads and incubated with SOD1 proteins. Then, VDAC1-binding complexes were isolated by the application of a magnetic field. […] The VDAC1-SOD1 interaction was quantitatively assayed by Microscale Thermophoresis (MST) analysis. MST measures any variation in the thermal migration of a fluorescently labeled binding partner; changes of fluorescence in a heated spot of the protein solution is a function of increasing interacting protein concentration, and can be exploited to calculate the binding affinity coefficient (Kd). The fluorescent-labeled VDAC1 was incubated with increasing concentrations of SOD1 proteins and the changes in fluorescence monitored. […]
Intact mitochondria were purified from NSC34 cells by Mitochondrial isolation kit (Miltenyi Biotech), according with manufacturer’s instructions. Isolated, intact mitochondria, in the storage buffer provided, were quantified by Lowry method. […] Proteins in mitochondrial or supernatant fraction were detected by western blot and quantified as explained in Supplementary Information. […]
(In western blotting, separated proteins are transferred to a membrane and probed.)

Assay [4] deals with recombinant human VDAC1. Nature of the assay: In vitro binding assay of SOD1 proteins to VDAC1 immobilized on Ni-NTA magnetic beads (western blot). As to conditions: 6.25 μM SOD1, 1 h RT, n = 3. The protocol:
as §1
Recombinant VDAC1 was immobilized onto Ni-NTA Magnetic Agarose Beads (Qiagen) by exploiting its 6xHis-tag, according with manufacture’s protocol. […] Any protein in VDAC1-bound and -unbound fractions was evaluated by western blot. […]

Assay [5] deals with VDAC1-SOD1 G93A interaction. Nature of the assay: In vitro VDAC1-SOD1 G93A binding assay after pre-incubation with HK1 or peptide (western blot, densitometry). Further details: species or system human. The conditions noted are these: 200 μM HK1 pre-incubated 1 h, 6.25 μM SOD1 G93A; with respect to control; n = 3. An excerpt:
It is well known that HKs bind to VDAC1 in physiological conditions. We hypothesized that the available area for interaction with soluble proteins is a limited, exposed portion of the transmembrane pore VDAC1. […] For this reason, we repeated the VDAC1-SOD1 G93A binding assay, adding increasing concentrations of HK1. […] The reduction corresponds to the increase of HK1 in VDAC1-bound fraction, and it is proportional to the HK1 concentrations added in the assay (Fig. 3A).
In order to evaluate the NHK1 ability to interfere with VDAC1-SOD1 G93A interaction, a binding assay was performed. Increasing concentrations of NHK1 were added to immobilized-VDAC1, before SOD1 G93A addition. […] In fact, a 20-fold smaller concentration of peptide was used to obtain a result similar to that obtained by using the whole HK1 in the previous experiment (see Fig. 3A).
Recombinant VDAC1 was immobilized onto Ni-NTA Magnetic Agarose Beads (Qiagen) by exploiting its 6xHis-tag, according with manufacture’s protocol. For each experiment, a large excess of VDAC1 (30 μM) were incubated with 50 μL of beads suspension in Interaction Buffer (IB) (300 mM NaCl, 50 mM NaH2PO4, 20 mM imidazole, pH 8.0) to saturate all sites. Beads were collected using the magnet-based system DynaMag-2 (Life Technologies) and washed twice in Wash Buffer (300 mM NaCl, 50 mM NaH2PO4, 20 mM imidazole, 0.05% Tween-20, pH 6.3) to remove any excess of VDAC1. Beads-immobilized VDAC1 were incubated with 6.25 μM SOD1 WT or G93A, for 1 h at RT, under constant shaking, in 100 μL of IB. The assay was also performed by pre-incubating immobilized-VDAC1 for an extra 1 h with increasing concentration of purified human HK1 (0, 100, 200 μM) or NHK1 peptide (0, 5, 10, 25 μM), before SOD1 G93A addition. Beads were recovered using Dyna-Mag2 system and VDAC1-complexes were eluted from beads using 50 μL of Elution Buffer (300 mM NaCl, 50 mM NaH2PO4, 300 mM imidazole, pH 3.5). Any protein in VDAC1-bound and -unbound fractions was evaluated by western blot. Three independent experiments were performed for each condition tested.

The test system of another assay is NSC34-SOD1G93A cells. In words: Mitochondrial membrane potential (ΔΨm) by flow cytometry. It counts as cell-based, mouse. As to conditions: NSC34-SOD1G93A expressing HK1; RH123; n = 3. The protocol:
To evaluate the NHK1 influence on mitochondrial functionality, mitochondrial membrane potential variation (ΔΨm) was assayed in the presence of NHK1 peptide or HK1. ΔΨm is related to the ATP production by oxidative phosphorylation; therefore, it is considered an indication of good mitochondrial and cellular health. Using mitochondria-targeted fluorescent probes, we estimated in flow cytometry the rate of mitochondrial depolarization. NSC34-SOD1G93A cells shown a high level of depolarized mitochondria compared to NSC34-SOD1WT. […] Similarly to NHK1 peptide, the expression of the whole HK1 reduced the depolarized mitochondria of about 15% (Fig. 7C).
ΔΨm was measured using tetramethyl-rhodamine methyl ester (TMRM) or Rhodamine 123 (RH123) (Molecular Probes) according to the excitation/emission wavelength of the transfection reporter or of the transfected fluorescent protein used. Both probes accumulates in active mitochondria due to their positive charge, whereby the reduction of ΔΨm leads to the release of fluorescent probes. Transfected NSC34-SOD1WT and NSC34-SOD1G93A cells were washed with PBS and incubated for 30 min at 37 °C with Krebs Ringer Buffered Saline supplemented with either 200 nM TMRM or 0.1 μg/mL RH123 and 20 μM Verapamil (as a multi drug-resistant pump inhibitor) (Sigma). Cells were then harvested and immediately analyzed by flow cytometry. Cells were excited by an air-cooled argon 488 nm laser, reading the GFP fluorescence of HK1-GFP or RH123 fluorescence in FL1 log mode; TMRM and mtDsRED used as transfection reporter of NHK1 peptide were read on FL3 log mode. Only viable cells detected by reading the scattering indicated as FSC and SSC, were considered for our analysis. The threshold physiological value of ΔΨm was estimated by using cells exposed to 1 μM of the uncoupling agent FCCP as a negative control. Data reported are representative for three sets of independent experiments, each performed at least in triplicate and based on 20.000 events for each group. Data were statistical analyzed by chi-square test. A p < 0,001 was taken as significant.

As for “SOD1 G93A: Strep-tagged recombinant human ALS-linked SOD1 G93A mutant expressed in E. coli”, in the assay with recombinant human VDAC1 [1], the “change of fluorescence of labeled VDAC1 with increasing SOD1 concentration” value is recorded as “produced fluorescence decrease”. Also, in assay [2], the “effect on single channel VDAC1 conductance” value was “promoted VDAC1 channel instability” and the “effect on voltage-dependence of VDAC1, triangular voltage ramps” value is recorded as “perturbation of voltage-dependence”. Moreover, the “distribution between mitochondrial pellet and supernatant” value in assay [3] is given as “co-precipitated in the mitochondrial pellet”. Further, the “distribution between VDAC1-bound and -unbound fraction” value in the assay on recombinant human VDAC1 [4] is “distributed between VDAC1-bound and -unbound fraction”.

Consider “SOD1 WT: Strep-tagged recombinant human SOD1 wild type expressed in E. coli”, for which, in the assay on recombinant human VDAC1 [1], the “change of fluorescence of labeled VDAC1 with increasing SOD1 concentration” value is listed as “no fluorescence change”. Further, in assay [2], the “effect on single channel VDAC1 conductance” value is given as “did not modify the VDAC1 closed state” and the “effect on voltage-dependence of VDAC1, triangular voltage ramps” value is recorded as “no modification in the usual VDAC1 pattern”. In addition, the “distribution between mitochondrial pellet and supernatant” value in assay [3] is reported as “found exclusively in the supernatant”. Besides, the “distribution between VDAC1-bound and -unbound fraction” value in the assay on recombinant human VDAC1 [4] is “almost exclusively in the unbound fraction”.

B1: HK1: recombinant human HK1 purchased by Sigma; in cells expressed from plasmid (protein)
chain: MIAAQLLAYYFTELKDDQVKKIDKYLYAMRLSDETLIDIMTRFRKEMKNGLSRDFNPTATVKMLPTFVRSIPDGSEKGDFIALDLGGSSFRILRVQVNHEKNQNVHMESEVYDTPENIVHGSGSQLFDHVAECLGDFMEKRKIKDKKLPVGFTFSFPCQQSKIDEAILITWTKRFKASGVEGADVVKLLNKAIKKRGDYDANIVAVVNDTVGTMMTCGYDDQHCEVGLIIGTGTNACYMEELRHIDLVEGDEGRMCINTEWGAFGDDGSLEDIRTEFDREIDRGSLNPGKQLFEKMVSGMYLGELVRLILVKMAKEGLLFEGRITPELLTRGKFNTSDVSAIEKNKEGLHNAKEILTRLGVEPSDDDCVSVQHVCTIVSFRSANLVAATLGAILNRLRDNKGTPRLRTTVGVDGSLYKTHPQYSRRFHKTLRRLVPDSDVRFLLSESGSGKGAAMVTAVAYRLAEQHRQIEETLAHFHLTKDMLLEVKKRMRAEMELGLRKQTHNNAVVKMLPSFVRRTPDGTENGDFLALDLGGTNFRVLLVKIRSGKKRTVEMHNKIYAIPIEIMQGTGEELFDHIVSCISDFLDYMGIKGPRMPLGFTFSFPCQQTSLDAGILITWTKGFKATDCVGHDVVTLLRDAIKRREEFDLDVVAVVNDTVGTMMTCAYEEPTCEVGLIVGTGSNACYMEEMKNVEMVEGDQGQMCINMEWGAFGDNGCLDDIRTHYDRLVDEYSLNAGKQRYEKMISGMYLGEIVRNILIDFTKKGFLFRGQISETLKTRGIFETKFLSQIESDRLALLQVRAILQQLGLNSTCDDSILVKTVCGVVSRRAAQLCGAGMAAVVDKIRENRGLDRLNVTVGVDGTLYKLHPHFSRIMHQTVKELSPKCNVSFLLSEDGSGKGAALITAVGVRLRTEASS
In the case of B1, the “decrease of SOD1 G93A bound to immobilized VDAC1” value in assay [5] is on record as “about 40%”. Moreover, in the assay with NSC34-SOD1G93A cells, the “reduction of depolarized mitochondria” value is “about 15%”.
